# Laboratory results as given in ChEMBL document CHEMBL1153261, “Retro-Inverso Tripeptide Renin Inhibitors” (Bioorg Med Chem Lett, 1992).
# Square brackets hold non-standard residues; d marks the D form. Peptide text beside a SMILES is read from it. * marks the point of attachment. Leu(ol) = CC(C)C[C@H](N)CO; Boc = CC(C)(C)OC(=O)*
# Target: T1, Renin (Homo sapiens, UniProt P00797)
# T1 sequence (P00797 whole entry): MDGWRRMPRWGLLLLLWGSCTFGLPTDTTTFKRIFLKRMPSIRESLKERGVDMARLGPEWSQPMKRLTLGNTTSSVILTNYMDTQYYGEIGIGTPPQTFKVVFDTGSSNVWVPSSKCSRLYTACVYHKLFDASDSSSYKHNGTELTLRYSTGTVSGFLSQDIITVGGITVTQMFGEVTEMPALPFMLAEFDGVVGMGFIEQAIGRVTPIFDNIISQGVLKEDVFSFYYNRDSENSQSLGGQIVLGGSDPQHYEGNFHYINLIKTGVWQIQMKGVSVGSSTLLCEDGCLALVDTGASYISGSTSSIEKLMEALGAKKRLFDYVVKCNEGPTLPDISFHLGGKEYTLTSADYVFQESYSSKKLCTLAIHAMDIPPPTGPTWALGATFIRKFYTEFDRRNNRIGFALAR
# Test: Compound was evaluated for inhibitory activity against renin
# Settings: read-out: I50
row,IC50 [µM],SMILES
1,20,CC(C)C[C@@H](CO)C(=O)N[C@H](Cc1c[nH]cn1)C(=O)N[C@H](Cc1ccccc1)C(=O)NCC(C)(C)C
2,1200,CC(C)C[C@@H](CO)NC(=O)[C@H](Cc1c[nH]cn1)C(=O)N[C@H](Cc1ccccc1)C(=O)NCC(C)(C)C
3,80,CC(C)C[C@H](CO)C(=O)N[C@H](Cc1c[nH]cn1)C(=O)N[C@H](Cc1ccccc1)C(=O)NCC(C)(C)C
4,16,CC(C)C[C@@H](CO)NC(=O)[C@H](Cc1cnc[nH]1)NC(=O)[C@H](Cc1ccccc1)NC(=O)OC(C)(C)C (Boc-Phe-His-[Leu(ol)])
